SMILES strings stand for the structures.

The target of this assay is T1, human SGLT2 (Homo sapiens, UniProt P31639, I433V).
T1 construct: expressed in transfected cells; host or cells: COS-7 cells (RIKEN CELL BANK RCB0539), transient, electroporation
T1 sequence (P31639 1-672 I433V): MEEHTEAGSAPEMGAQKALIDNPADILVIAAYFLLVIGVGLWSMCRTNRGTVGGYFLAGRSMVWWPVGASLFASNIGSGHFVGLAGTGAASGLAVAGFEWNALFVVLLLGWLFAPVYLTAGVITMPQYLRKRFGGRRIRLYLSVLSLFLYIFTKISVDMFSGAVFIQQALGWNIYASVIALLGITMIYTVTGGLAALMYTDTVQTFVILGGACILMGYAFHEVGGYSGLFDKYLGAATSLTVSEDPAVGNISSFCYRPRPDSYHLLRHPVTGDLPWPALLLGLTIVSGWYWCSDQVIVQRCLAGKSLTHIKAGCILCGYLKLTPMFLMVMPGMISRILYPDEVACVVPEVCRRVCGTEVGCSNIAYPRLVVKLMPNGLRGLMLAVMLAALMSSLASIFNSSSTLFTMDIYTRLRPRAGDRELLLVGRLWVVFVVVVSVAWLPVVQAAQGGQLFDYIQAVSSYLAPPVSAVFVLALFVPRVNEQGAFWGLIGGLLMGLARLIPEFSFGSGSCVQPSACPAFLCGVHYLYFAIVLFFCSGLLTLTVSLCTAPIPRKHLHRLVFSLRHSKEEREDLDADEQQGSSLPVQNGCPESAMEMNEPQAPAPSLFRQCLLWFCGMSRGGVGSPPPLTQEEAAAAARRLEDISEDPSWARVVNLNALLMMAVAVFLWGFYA
Kind of assay: Assay for inhibitory effect on human SGLT2 activity (methyl-α-D-glucopyranoside uptake in COS-7 cells transiently expressing human SGLT2). The format is cell-based. As to conditions: inhibition of methyl-α-D-glucopyranoside uptake, COS-7 cells expressing human SGLT2, 37° C., 2 hours. How it is done: Assay for Inhibitory Effect on Human SGLT2 Activity
1) Construction of the Plasmid Vector Expressing Human SGLT2
Preparation of the cDNA library for PCR amplification was performed by reverse transcription of a total RNA deprived from human kidney (Ori gene) with oligo dT as the primer, using SUPERSCRIPT Preamplification System (Gibco-BRL: LIFE TECHNOLOGIES). The DNA fragment coding for human SGLT2 was amplified by the PCR reaction, in which the human kidney cDNA library described above was used as the template and the following oligo nucleotides 0702F and 0712R, presented as sequence number 1 and 2 respectively, were used as the primers. The amplified DNA fragment was ligated into pCR-Blunt (Invitrogen), a vector for cloning, according to standard method of the kit. The Escherichia coli HB101 was transformed according to usual method and then selection of the transformants was performed on the LB agar medium containing 50 μg/mL of kanamycin. After plasmid DNA was extracted and purified from the one of the transformants, amplifying of the DNA fragment coding for human SGLT2 was performed by the PCR reaction, in which the following oligo nucleotides 0714F and 0715R, presented as sequence number 3 and 4 respectively, were used as the primers. The amplified DNA fragment was digested with restriction enzymes, Xho I and Hind III, and then purified with Wizard Purification System (Promega). This purified DNA fragment was inserted at into the corresponding restriction sites of pcDNA3.1 (−) Myc/His—B (Invitrogen), a vector for expressing of fusion protein. The Escherichia coli HB101 was transformed according to usual method and then selection of the transformant was performed on the LB agar medium containing 100 μg/mL of ampicillin. After plasmid DNA was extracted and purified from this transformant, the base sequence of the DNA fragment inserted at the multi-cloning sites of the vector pcDNA3.1 (−) Myc/His—B was analyzed. […] Sequentially, a clone in which valine is substituted for isoleucine-433 was obtained. This plasmid vector expressing human SGLT2 in which the peptide presented as sequence number 5 is fused to the carboxyl terminal alanine residue was designated KL29.
2) Preparation of the Cells Expressing Transiently Human SGLT2
KL29, the plasmid coding human SGLT2, was transfected into COS-7 cells (RIKEN CELL BANK RCB0539) by electroporation. Electroporation was performed with GENE PULSER II (Bio-Rad Laboratories) under the condition: 0.290 kV, 975 μF, 2×10^6 cells of COS-7 cell and 20 μg of KL29 in 500 μL of OPTI-MEM I medium (Gibco-BRL: LIFE TECHNOLOGIES) in the 0.4 cm type cuvette. After the gene transfer, the cells were harvested by centrifugation and resuspended with OPTI-MEM I medium (1 mL/cuvette). To each well in 96-wells plate, 125 μL of this cell suspension was added. After overnight culture at 37° C. under 5% CO2, 125 μL of DMEM medium which is containing 10% of fetal bovine serum (Sanko Jyunyaku), […] sodium penicillin G (Gibco-BRL: LIFE TECHNOLOGIES), 100 μg/mL streptomycin sulfate (Gibco-BRL: LIFE TECHNOLOGIES) was added to each well. These cells were cultured until the next day and then they were used for the measurement of the inhibitory activity against the uptake of methyl-α-D-glucopyranoside.
3) Measurement of the Inhibitory Activity Against the Uptake of methyl-α-D-glucopyranoside
After a test compounds was dissolved in dimethyl sulfoxide and diluted with the uptake buffer (a pH 7.4 buffer containing 140 mM sodium chloride, 2 mM potassium chloride, 1 mM calcium chloride, 1 mM magnesium chloride, 5 mM methyl-α-D-glucopyranoside, 10 mM 2-[4-(2-hydroxyethyl)-1-piperazinyl]ethane sulfonic acid and 5 mM tris(hydroxymethyl)aminomethane), each diluent was used as test sample for measurement of the inhibitory activity. […]
In general, IC50 refers to the concentration that gives 50% inhibition. Take `CCOc1ccc(Cc2c(O[C@@H]3O[C@H](CO)[C@@H](O)[C@H](O)[C@H]3O)n[nH]c2C)cc1` [Reference Example 41, 4-[(4-Ethoxyphenyl)methyl]-3-(β-D-glucopyranosyloxy)-5-methyl-1H-pyrazole]: the IC50 was 185 nM.
In turn, `CCc1ccc(Cc2c(O[C@@H]3O[C@H](CO)[C@@H](O)[C@H](O)[C@H]3O)n[nH]c2C(F)(F)F)cc1` [Reference Example 60, 4-[(4-Ethylphenyl)methyl]-3-(β-D-glucopyranosyloxy)-5-trifluoromethyl-1H-pyrazole] had an IC50 of 634 nM.
As for `Cc1[nH]nc(O[C@@H]2O[C@H](CO)[C@@H](O)[C@H](O)[C@H]2O)c1Cc1ccc(OC(C)C)cc1` [Reference Example 37, 3-(β-D-Glucopyranosyloxy)-4-[(4-isopropoxyphenyl)methyl]-5-methyl-1H-pyrazole], the midpoint of inhibition, the IC50, lay at 181 nM.
`CCCOc1ccc(Cc2c(O[C@@H]3O[C@H](CO)[C@@H](O)[C@H](O)[C@H]3O)n[nH]c2C)cc1` [Reference Example 40, 3-(β-D-Glucopyranosyloxy)-5-methyl-4-[(4-propoxyphenyl)-methyl]-1H-pyrazole] showed a half-inhibitory concentration (IC50) of 702 nM.
Under `CSc1ccc(Cc2c(O[C@@H]3O[C@H](CO)[C@@H](O)[C@H](O)[C@H]3O)n[nH]c2C(F)(F)F)cc1` [Reference Example 48, 3-(β-D-Glucopyranosyloxy)-4-[(4-methylthiophenyl)methyl]-5-trifluoromethyl-1H-pyrazole] stands 679 nM; under `CCCc1ccc(Cc2c(O[C@@H]3O[C@H](CO)[C@@H](O)[C@H](O)[C@H]3O)n[nH]c2C)cc1` [Reference Example 38, 3-(β-D-Glucopyranosyloxy)-5-methyl-4-[(4-propylphenyl)-methyl]-1H-pyrazole], 441 nM; under `COc1ccc(Cc2c(O[C@@H]3O[C@H](CO)[C@@H](O)[C@H](O)[C@H]3O)n[nH]c2C)cc1` [Reference Example 51, 3-(β-D-Glucopyranosyloxy)-4-[(4-methoxyphenyl)methyl]-5-methyl-1H-pyrazole], 383 nM.
The value for `Cc1c(Cc2ccc(OC(C)C)cc2)c(O[C@@H]2O[C@H](CO)[C@@H](O)[C@H](O)[C@H]2O)nn1C(C)C` [Reference Example 72, 3-(β-D-Glucopyranosyloxy)-4-[(4-isopropoxyphenyl)methyl]-1-isopropyl-5-methylpyrazole] was 369 nM.
Under `COc1ccc(Cc2c(O[C@@H]3O[C@H](CO)[C@@H](O)[C@H](O)[C@H]3O)n[nH]c2C(F)(F)F)cc1` [Reference Example 50, 3-(β-D-Glucopyranosyloxy)-4-[(4-methoxyphenyl)methyl]-5-trifluoromethyl-1H-pyrazole] stands 415 nM; under `Cc1[nH]nc(O[C@@H]2O[C@H](CO)[C@@H](O)[C@H](O)[C@H]2O)c1Cc1ccc(C(C)C)cc1` [Reference Example 47, 3-(β-D-Glucopyranosyloxy)-4-[(4-isopropylphenyl)methyl]-5-methyl-1H-pyrazole], 441 nM; under `Cc1ccc(Cc2c(O[C@@H]3O[C@H](CO)[C@@H](O)[C@H](O)[C@H]3O)n[nH]c2C)cc1` [Reference Example 57, 3-(β-D-Glucopyranosyloxy)-5-methyl-4-[(4-methylphenyl)-methyl]-1H-pyrazole], 280 nM.
`CSc1ccc(Cc2c(O[C@@H]3O[C@H](CO)[C@@H](O)[C@H](O)[C@H]3O)n[nH]c2C)cc1` [Reference Example 45, 3-(β-D-Glucopyranosyloxy)-5-methyl-4-[(4-methylthiophenyl)-methyl]-1H-pyrazole] returned a half-maximal inhibitory concentration (IC50) of 84 nM.
The value for `CCc1ccc(Cc2c(O[C@@H]3O[C@H](CO)[C@@H](O)[C@H](O)[C@H]3O)n[nH]c2C)cc1` [Reference Example 58, 4-[(4-Ethylphenyl)methyl]-3-(β-D-glucopyranosyloxy)-5-methyl-1H-pyrazole] was 190 nM.
`CSc1ccc(Cc2c(O[C@@H]3O[C@H](CO)[C@@H](O)[C@H](O)[C@H]3O)nn(C)c2C(F)(F)F)cc1` [Reference Example 54, 3-(β-D-Glucopyranosyloxy)-1-methyl-4-[(4-methylthiophenyl)-methyl]-5-trifluoromethylpyrazole] yielded a half-inhibitory concentration (IC50) of 835 nM.
`CCc1[nH]nc(O[C@@H]2O[C@H](CO)[C@@H](O)[C@H](O)[C@H]2O)c1Cc1ccc(SC)cc1` [Reference Example 46, 5-Ethyl-3-(β-D-glucopyranosyloxy)-4-[(4-methylthiophenyl)-methyl]-1H-pyrazole]: the IC50 turned out to be 509 nM.
